Article PMC9866191, “Novel 9-Benzylaminoacridine Derivatives as Dual Inhibitors of Phosphodiesterase 5 and Topoisomerase II for the Treatment of Colon Cancer” (Molecules, 2023)

Experiments:
[1] = target: T1, PDE5A (Homo sapiens, UniProt O76074); test: Phosphodiesterase 5 HTRF cGMP assay; format: biochemical; conditions: for IC50: means ± S.D. (n = 4), read-out: PDE5 IC50; for inhibition at 10 µM: read-out: PDE5 % Inhibition at 10 μM
T1 construct: purchased BPS Bioscience, San Diego, CA, USA
Description: All the synthesized acridine derivatives were tested for their in vitro ability to inhibit PDE5A at a screening dose of 10 µM.
The enzyme activities of phosphodiesterase 5 (PDE5) were measured using an HTRF cGMP assay kit (Cisbio, Codolet, France). […] Afterward, the HTRF reagent (cGMP-d2 and anti-cGMP-cryptate) was added for 1 h at 25 °C, and PDE activity was assayed on an HTRF reader (Tecan Infinite F200 Pro).

[2] = system: 786-0; test: NCI-60 one-dose screen; format: cell-based; conditions: Homo sapiens; 786-0, Renal Cancer panel; single dose 10^−5 M; read-out: Growth inhibition %
[3] = system: A498; test: NCI-60 one-dose screen; format: cell-based; conditions: Homo sapiens; A498, Renal Cancer panel; single dose 10^−5 M; read-out: Growth inhibition %
[4] = system: BT-549; test: NCI-60 one-dose screen; format: cell-based; conditions: Homo sapiens; BT-549, Breast Cancer panel; single dose 10^−5 M; read-out: Growth inhibition %
[5] = system: EKVX; test: NCI-60 one-dose screen; format: cell-based; conditions: Homo sapiens, Non-small cell lung panel, single dose 10^−5 M, read-out: Growth inhibition %
[6] = system: HCT-116; test: NCI-60 one-dose screen; format: cell-based; conditions: Homo sapiens, read-out: Growth inhibition %
[7] = system: HCT-15; test: NCI-60 one-dose screen; format: cell-based; conditions: Homo sapiens; HCT-15, Colon Cancer panel; single dose 10^−5 M; read-out: Growth inhibition %
[8] = system: HL-60(TB); test: NCI-60 one-dose screen; format: cell-based; conditions: Homo sapiens, Leukemia panel, single dose 10^−5 M, read-out: Growth inhibition %
[9] = system: HS 578T; test: NCI-60 one-dose screen; format: cell-based; conditions: Homo sapiens, Breast Cancer panel, single dose 10^−5 M, read-out: Growth inhibition %
[10] = system: HT29; test: NCI-60 one-dose screen; format: cell-based; conditions: Homo sapiens, HT-29; HT29, Colon Cancer panel; single dose 10^−5 M; read-out: Growth inhibition %
[11] = system: KM12; test: NCI-60 one-dose screen; format: cell-based; conditions: Homo sapiens; KM12, Colon Cancer panel; single dose 10^−5 M; read-out: Growth inhibition %
[12] = system: M14; test: NCI-60 one-dose screen; format: cell-based; conditions: Homo sapiens; M14, Melanoma panel; single dose 10^−5 M; read-out: Growth inhibition %
[13] = system: MALME-3M; test: NCI-60 one-dose screen; format: cell-based; conditions: Homo sapiens, Melanoma panel, single dose 10^−5 M, read-out: Growth inhibition %
[14] = system: MCF7; test: NCI-60 one-dose screen; format: cell-based; conditions: Homo sapiens; MCF7, Breast Cancer panel; single dose 10^−5 M; read-out: Growth inhibition %
[15] = system: MDA-MB-468; test: NCI-60 one-dose screen; format: cell-based; conditions: Homo sapiens; MDA-MB-468, Breast Cancer panel; single dose 10^−5 M; read-out: Growth inhibition %
[16] = system: MOLT-4; test: NCI-60 one-dose screen; format: cell-based; conditions: Homo sapiens; MOLT-4, Leukemia panel; single dose 10^−5 M; read-out: Growth inhibition %
[17] = system: NCI-H322M; test: NCI-60 one-dose screen; format: cell-based; conditions: Homo sapiens, Non-small cell lung panel, single dose 10^−5 M, read-out: Growth inhibition %
[18] = system: NCI-H460; test: NCI-60 one-dose screen; format: cell-based; conditions: Homo sapiens; NCI-H460, Non-small cell lung panel; single dose 10^−5 M; read-out: Growth inhibition %
[19] = system: NCI-H522; test: NCI-60 one-dose screen; format: cell-based; conditions: Homo sapiens; NCI-H522, Non-small cell lung panel; single dose 10^−5 M; read-out: Growth inhibition %
[20] = system: PC-3; test: NCI-60 one-dose screen; format: cell-based; conditions: Homo sapiens; PC-3, Prostate Cancer panel; single dose 10^−5 M; read-out: Growth inhibition %
[21] = system: RPMI-8226; test: NCI-60 one-dose screen; format: cell-based; conditions: Homo sapiens; RPMI-8226, Leukemia panel; single dose 10^−5 M; read-out: Growth inhibition %
[22] = system: SF-539; test: NCI-60 one-dose screen; format: cell-based; conditions: Homo sapiens; SF-539, CNS Cancer panel; single dose 10^−5 M; read-out: Growth inhibition %
[23] = system: SK-MEL-28; test: NCI-60 one-dose screen; format: cell-based; conditions: Homo sapiens; SK-MEL-28, Melanoma panel; single dose 10^−5 M; read-out: Growth inhibition %
[24] = system: SR; test: NCI-60 one-dose screen; format: cell-based; conditions: Homo sapiens, Leukemia panel, single dose 10^−5 M, read-out: Growth inhibition %
[25] = system: SW-620; test: NCI-60 one-dose screen; format: cell-based; conditions: Homo sapiens; SW-620, Colon Cancer panel; single dose 10^−5 M; read-out: Growth inhibition %
[26] = system: TK-10; test: NCI-60 one-dose screen; format: cell-based; conditions: Homo sapiens; TK-10, Renal Cancer panel; single dose 10^−5 M; read-out: Growth inhibition %
[27] = system: UACC-257; test: NCI-60 one-dose screen; format: cell-based; conditions: Homo sapiens; UACC-257, Melanoma panel; single dose 10^−5 M; read-out: Growth inhibition %
[28] = system: LOX IMVI; test: NCI-60 one-dose screen; format: cell-based; conditions: Homo sapiens, Melanoma panel, single dose 10^−5 M, read-out: Growth inhibition %
[29] = system: HCT-116; test: MTT cell proliferation assay, HCT-116; conditions: for % Inhibition at 10 µM: 72 h MTT, means ± SD; for IC50: read-out: IC50 μM, 72 h MTT, means ± SD, three experiments
[30] = system: CCD-966SK; test: MTT cell proliferation assay, CCD-966SK; conditions: CCD966SK skin fibroblast, 72 h MTT; for IC50: read-out: IC50 μM
Description: In the MTT assay, 96-well culture plates were used. A total of 7 × 10^4 cells per well were seeded, and test materials were added to the cells at various concentrations [47, 48]. Human cancer and non-cancer cell lines were purchased commercially from the American Type Culture Collection (ATCC). After 72 h, the cytotoxicity of the compounds and paclitaxel (as a positive control group) was detected using the MTT method (thiazolyl blue tetrazolium bromide, Sigma-M2128). Absorbance values at 570 and 620 nm (OD = OD570–OD620) were measured using an ELISA reader (Anthos Labtec Instruments, Salzburg, Austria).

Structure (SMILES)	IC50 [1]	inhibition at 10 µM [1]	inhibition at 10 µM [2]	inhibition at 10 µM [3]	inhibition at 10 µM [4]	inhibition at 10 µM [5]	inhibition at 10 µM [6]	inhibition at 10 µM [7]	inhibition at 10 µM [8]	inhibition at 10 µM [9]	inhibition at 10 µM [10]	inhibition at 10 µM [11]	inhibition at 10 µM [12]	inhibition at 10 µM [13]	inhibition at 10 µM [14]	inhibition at 10 µM [15]	inhibition at 10 µM [16]	inhibition at 10 µM [17]	inhibition at 10 µM [18]	inhibition at 10 µM [19]	also measured
Clc1ccccc1CNc1c2ccccc2nc2ccccc12 [Compound 11, Acridin-9-yl-(2-chlorobenzyl)-amine]	4.33 ± 2.35 µM	87.3 ± 3.68%	75.5%	106%	61.9%	74.1%	91.9%	86.4%	86.4%	50%	94.5%	78%	81.9%	81%	100%	128%	94.9%	73%	91.2%	71.5%	inhibition at 10 µM [20]: 82.9%; inhibition at 10 µM [21]: 127%; inhibition at 10 µM [22]: 93.8%; inhibition at 10 µM [23]: 49.5%; inhibition at 10 µM [24]: 99.5%; inhibition at 10 µM [25]: 90.4%; inhibition at 10 µM [26]: 57.5%; inhibition at 10 µM [27]: 55.7%; inhibition at 10 µM [28]: 95.2%; % Inhibition at 10 µM [29]: 63.49 ± 1.20%; IC50 [29]: 7.13 ± 0.24 µM; % Inhibition at 10 µM [30]: 36.77 ± 3.49%
Cc1cccc(CNc2c3ccccc3nc3ccccc23)c1 [Compound 3, Acridin-9-yl-(3-methylbenzyl)-amine]	6.4 ± 1.89 µM	59.3 ± 6.18%	75.8%	102%	32.7%	55.5%	90.2%	84.1%	87.5%	69.7%	94.8%	74.4%	77.2%	85.9%	93.8%	100%	97.7%	59.7%	91.3%	47.9%	inhibition at 10 µM [20]: 75.1%; inhibition at 10 µM [21]: 120%; inhibition at 10 µM [22]: 88.3%; inhibition at 10 µM [23]: 41.2%; inhibition at 10 µM [24]: 103%; inhibition at 10 µM [25]: 82.8%; inhibition at 10 µM [26]: 61.6%; inhibition at 10 µM [27]: 63.8%; inhibition at 10 µM [28]: 93.8%; % Inhibition at 10 µM [29]: 66.71 ± 2.10%; IC50 [29]: 4.6 ± 0.07 µM; % Inhibition at 10 µM [30]: 54.31 ± 0.98%; IC50 [30]: 8.51 ± 0.07 µM
c1ccc(CNc2c3ccccc3nc3ccccc23)cc1 [Compound 1, Acridin-9-yl-benzyl-amine]	9.33 ± 4.62 µM	52.2 ± 5.87%	65.7%	83.4%	27.2%	51.9%	91.6%	75.4%	56.2%	43.9%	81%	69.5%	67.7%	62.6%	88%	80.7%	84.5%	53.7%	89.7%	43.2%	inhibition at 10 µM [20]: 62.8%; inhibition at 10 µM [21]: 92.3%; inhibition at 10 µM [22]: 76%; inhibition at 10 µM [23]: 14.5%; inhibition at 10 µM [24]: 88.3%; inhibition at 10 µM [25]: 75.5%; inhibition at 10 µM [26]: 51.3%; inhibition at 10 µM [27]: 47.3%; inhibition at 10 µM [28]: 80.2%; % Inhibition at 10 µM [29]: 67.16 ± 2.40%; IC50 [29]: 2.81 ± 0.2 µM; % Inhibition at 10 µM [30]: 47.97 ± 1.96%
Cc1ccccc1CNc1c2ccccc2nc2ccccc12 [Compound 2, Acridin-9-yl-(2-methylbenzyl)-amine]	9.87 ± 2.06 µM	50.4 ± 3.68%	75.7%	102%	44.1%	61.6%	92.1%	85.4%	84.7%	64.3%	91.1%	83.1%	86.8%	84.8%	93.1%	94.2%	91.2%	71%	93.1%	50%	inhibition at 10 µM [20]: 74.4%; inhibition at 10 µM [21]: 109%; inhibition at 10 µM [22]: 96.7%; inhibition at 10 µM [23]: 41.7%; inhibition at 10 µM [24]: 97.3%; inhibition at 10 µM [25]: 86.2%; inhibition at 10 µM [26]: 61.4%; inhibition at 10 µM [27]: 67.3%; inhibition at 10 µM [28]: 90.9%; % Inhibition at 10 µM [29]: 66.96 ± 0.14%; IC50 [29]: 4.01 ± 0.17 µM; % Inhibition at 10 µM [30]: 59.74 ± 0.55%; IC50 [30]: 4.18 ± 0.36 µM
